We go through 6 compounds from patent US20100016401A1, “3-AZA-BICYCLO[3.1.0]HEXANE DERIVATIVES” (Actelion Phamaceuticals Ltd., priority 2006, published 2010).

Each structure is given as a SMILES string.

For assay [1], the target named is T1, human orexin-1 receptor (Homo sapiens, UniProt O43613).
T1 construct: expressed in transfected cells; host or cells: CHO (Chinese hamster ovary) cells, grown under G418 selection
T1 sequence (O43613 1-425): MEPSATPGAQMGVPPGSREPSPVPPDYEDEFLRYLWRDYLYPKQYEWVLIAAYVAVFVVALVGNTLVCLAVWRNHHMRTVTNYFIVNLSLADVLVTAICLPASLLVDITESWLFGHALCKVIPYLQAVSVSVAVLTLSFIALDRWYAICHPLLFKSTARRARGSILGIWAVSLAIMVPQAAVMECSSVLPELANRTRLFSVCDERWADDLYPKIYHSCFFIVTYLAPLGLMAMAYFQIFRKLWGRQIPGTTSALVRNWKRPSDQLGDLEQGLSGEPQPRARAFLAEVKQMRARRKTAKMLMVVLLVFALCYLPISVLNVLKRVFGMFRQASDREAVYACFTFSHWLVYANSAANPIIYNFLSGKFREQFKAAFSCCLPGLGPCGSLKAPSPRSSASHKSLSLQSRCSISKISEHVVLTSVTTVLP
Put plainly: Intracellular calcium measurements (FLIPR), orexin receptor antagonistic activity, OX1. The format is cell-based. The settings on record: CHO cells expressing human orexin-1 receptor, 10 nM orexin-A as agonist. As for the experimental part: (§1) The orexin receptor antagonistic activity of the compounds of formula (I) is determined in accordance with the following experimental method.
(§2) Intracellular Calcium Measurements:
(§3) Chinese hamster ovary (CHO) cells expressing the human orexin-1 receptor and the human orexin-2 receptor, respectively, are grown in culture medium (Ham F-12 with L-Glutamine) containing 300 μg/ml G418, 100 U/ml penicillin, 100 μg/ml streptomycin and 10% inactivated fetal calf serum (FCS). The cells are seeded at 80,000 cells/well into 96-well black clear bottom sterile plates (Costar) which have been precoated with 1% gelatine in Hanks' Balanced Salt Solution (HBSS). All reagents are from Gibco BRL. The seeded plates are incubated overnight at 37° C. in 5% CO2.
(§4) Human orexin-A as an agonist is prepared as 1 mM stock solution in MeOH: water (1:1), diluted in HBSS containing 0.1% bovine serum albumin (BSA) and 2 mM HEPES for use in the assay at a final concentration of 10 nM.
(§5) Antagonists are prepared as 10 mM stock solution in DMSO, then diluted in 96-well plates, first in DMSO, then in HBSS containing 0.1% bovine serum albumin (BSA) and 2 mM HEPES.
(§6) On the day of the assay, 100 μl of loading medium (HBSS containing 1% FCS, 2 mM HEPES, 5 mM probenecid (Sigma) and 3 μM of the fluorescent calcium indicator fluo-3 AM (1 mM stock solution in DMSO with 10% pluronic acid) (Molecular Probes) is added to each well.
(§7) The 96-well plates are incubated for 60 min at 37° C. in 5% CO2. The loading solution is then aspirated and cells are washed 3 times with 200 μl HBSS containing 2.5 mM probenecid, 0.1% BSA, 2 mM HEPES. 100 μl of that same buffer is left in each well.
(§8) Within the Fluorescent Imaging Plate Reader (FLIPR, Molecular Devices), antagonists are added to the plate in a volume of 50 μl, incubated for 20 min and finally 100 μl of agonist is added. Fluorescence is measured for each well at 1 second intervals, and the height of each fluorescence peak is compared to the height of the fluorescence peak induced by 10 nM orexin-A with buffer in place of antagonist.
Background: Calcium assays in cells follow changes in intracellular calcium, usually with a dye or a luminescent sensor.

The target in assay [2] is T2, human orexin-2 receptor (Homo sapiens, UniProt O43614).
T2 construct: expressed in transfected cells; host or cells: CHO (Chinese hamster ovary) cells, grown under G418 selection
T2 sequence (O43614 1-444): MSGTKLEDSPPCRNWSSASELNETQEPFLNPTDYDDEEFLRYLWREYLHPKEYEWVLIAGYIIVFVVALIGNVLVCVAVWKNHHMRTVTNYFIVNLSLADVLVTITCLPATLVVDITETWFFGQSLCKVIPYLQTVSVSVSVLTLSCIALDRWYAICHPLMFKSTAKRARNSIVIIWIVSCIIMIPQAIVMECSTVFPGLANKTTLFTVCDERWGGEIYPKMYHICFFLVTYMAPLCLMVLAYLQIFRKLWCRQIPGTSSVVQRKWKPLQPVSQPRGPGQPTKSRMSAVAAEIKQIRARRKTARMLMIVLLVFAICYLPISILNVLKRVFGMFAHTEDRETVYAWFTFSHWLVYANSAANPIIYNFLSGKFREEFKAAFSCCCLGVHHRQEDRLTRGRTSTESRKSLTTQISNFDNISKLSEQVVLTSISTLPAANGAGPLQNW
The assay can be described thus: Intracellular calcium measurements (FLIPR), orexin receptor antagonistic activity, OX2. The format is cell-based. As to conditions: CHO cells expressing human orexin-2 receptor, 10 nM orexin-A as agonist. As for the experimental part:
as §1, §2, §3, §4, §5, §6, §7, §8

For `Cc1nc(C(=O)N2C[C@H]3C[C@H]3[C@H]2CNC(=O)c2cccc3c2OCCO3)c(-c2cccc(C#N)c2)s1` (relative stereo) [Example 336, 2,3-Dihydro-benzo[1,4]dioxine-5-carboxylic acid {(1R*,2S*,5S*)-3-[5-(3-cyano-phenyl)-2-methyl-thiazole-4-carbonyl]-3-aza-bicyclo[3.1.0]hex-2-ylmethyl}-amide], the IC50 (usually the concentration needed to halve the response being measured) worked out at 141 nM in assay [1] and 48 nM in assay [2].
On the same counts, the results for `Cc1cccc(-c2sc(C#CCO)nc2C(=O)N2C[C@H]3C[C@H]3[C@H]2CNC(=O)c2c(C)nc3sccn23)c1` (relative stereo) [Example 387, 6-Methyl-imidazo[2,1-b]thiazole-5-carboxylic acid {(1R*,2S*,5S*)-3-[2-(3-hydroxy-prop-1-ynyl)-5-m-tolyl-thiazole-4-carbonyl]-3-aza-bicyclo[3.1.0]hex-2-ylmethyl}-amide] are 23 nM and 85 nM.
The like results for `Cc1cccc(-c2sc(CCCO)nc2C(=O)N2C[C@H]3C[C@H]3[C@H]2CNC(=O)c2c(C)nc3sccn23)c1` (relative stereo) [Example 389, 6-Methyl-imidazo[2,1-b]thiazole-5-carboxylic acid {(1R*,2S*,5S*)-3-[2-(3-hydroxy-propyl)-5-m-tolyl-thiazole4-carbonyl]-3-aza-bicyclo[3.1.0]hex-2-ylmethyl}-amide] were, in that order, 19 nM and 17 nM.
The like results for `Cc1ccc(C(=O)N2C[C@H]3C[C@H]3[C@H]2CNC(=O)c2cccc3c2OCC3)c(-c2cccc(F)c2)c1` [Compound 325] were, in that order, 346 nM and 40 nM.
As to `Cc1ccc(C(=O)N2C[C@H]3C[C@H]3[C@H]2CNC(=O)c2cccc3c2OCCO3)c(-c2ccc3c(c2)OCCO3)c1` [Compound 350], the IC50 in assay [1] turned out to be 110 nM; in assay [2], 194 nM.
For the compound `Cc1csc(-c2c(C)cccc2C(=O)N2C[C@H]3C[C@H]3[C@H]2CNC(=O)c2cccc3c2OCCO3)c1` [Compound 376], the results for the IC50 in assay [1] and in assay [2] were 194 nM and 158 nM, respectively.
